The values below are quoted from earlier work in patent US20100166887A1, “DIBENZO[b,e][1,4]DIAZEPINE MODULATORS OF DOPAMINE RECEPTORS, SEROTONIN RECEPTORS, ADRENERGIC RECEPTORS, ACETYLCHOLINE RECEPTORS, AND/OR HISTAMINE RECEPTORS” (Auspex Pharmaceuticals, Inc., priority 2008, published 2010).

Molecules are shown by their SMILES.

This data set deals with human ether-a-gogo related gene (hERG) potassium channel (Homo sapiens, UniProt Q12809). Conditions: Pearlstein et al., J. Med. Chem., 2003.
Chain of human ether-a-gogo related gene (hERG) potassium channel (Q12809 whole entry): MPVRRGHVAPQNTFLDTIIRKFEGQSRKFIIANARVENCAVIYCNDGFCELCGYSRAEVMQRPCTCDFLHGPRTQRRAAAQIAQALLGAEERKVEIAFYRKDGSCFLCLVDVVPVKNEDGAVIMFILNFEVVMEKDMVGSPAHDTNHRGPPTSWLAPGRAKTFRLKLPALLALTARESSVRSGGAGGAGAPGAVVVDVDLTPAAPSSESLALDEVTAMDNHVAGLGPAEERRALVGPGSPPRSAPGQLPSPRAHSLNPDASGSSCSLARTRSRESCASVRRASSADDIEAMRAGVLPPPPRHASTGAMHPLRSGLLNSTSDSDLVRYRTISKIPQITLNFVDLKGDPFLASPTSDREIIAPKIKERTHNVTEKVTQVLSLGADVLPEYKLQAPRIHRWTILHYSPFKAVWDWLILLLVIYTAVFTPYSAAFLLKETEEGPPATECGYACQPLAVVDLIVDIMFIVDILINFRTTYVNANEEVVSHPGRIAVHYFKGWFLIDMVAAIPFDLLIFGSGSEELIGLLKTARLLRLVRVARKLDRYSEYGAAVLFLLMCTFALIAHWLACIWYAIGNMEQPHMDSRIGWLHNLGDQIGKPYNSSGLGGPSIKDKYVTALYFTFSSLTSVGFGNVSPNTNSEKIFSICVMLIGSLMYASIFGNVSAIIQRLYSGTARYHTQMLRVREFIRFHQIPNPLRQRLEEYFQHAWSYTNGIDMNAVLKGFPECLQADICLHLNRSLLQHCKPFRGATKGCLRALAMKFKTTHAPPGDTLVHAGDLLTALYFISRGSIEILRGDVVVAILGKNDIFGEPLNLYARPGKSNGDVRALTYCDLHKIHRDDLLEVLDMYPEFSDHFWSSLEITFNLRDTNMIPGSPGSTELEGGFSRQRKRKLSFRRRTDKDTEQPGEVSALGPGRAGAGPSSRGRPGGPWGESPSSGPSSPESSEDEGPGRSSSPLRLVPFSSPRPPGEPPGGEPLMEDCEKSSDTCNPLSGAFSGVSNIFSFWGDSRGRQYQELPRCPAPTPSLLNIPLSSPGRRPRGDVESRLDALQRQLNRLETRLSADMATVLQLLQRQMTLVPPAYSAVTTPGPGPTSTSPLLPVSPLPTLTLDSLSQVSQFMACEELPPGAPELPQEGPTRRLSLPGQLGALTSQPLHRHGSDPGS

For the molecule `Clc1ccc2c(c1)N=C(N1CCNCC1)c1ccccc1N2` [N-desmethyl clozapine, 8-Chloro-11-(4-piperazino)-5H-dibenzo[b,e][1,4]diazepine], the “inhibition of the hERG potassium channel” value is reported as “inhibits”.
